# pIC50: −log10 of the molar value.
# Target: T1, DENV-2 NS2B-NS3 protease (Dengue virus 2 Thailand/16681/84, UniProt P29990)
# T1 construct: NS2BNS3 gene RT-PCR amplified from DENV-2 16681 RNA genome; AVI tag in forward primer, F2A peptide in reverse primer; in pcDNA3.1-HisC (pcDNA-DEN2_NS2BNS3), transiently expressed in HEK293T; parts of the genome polyprotein; with Serine protease subunit NS2B
# Experiment: cell-based
# T1 sequence (P29990 1346-2093 limits assumed): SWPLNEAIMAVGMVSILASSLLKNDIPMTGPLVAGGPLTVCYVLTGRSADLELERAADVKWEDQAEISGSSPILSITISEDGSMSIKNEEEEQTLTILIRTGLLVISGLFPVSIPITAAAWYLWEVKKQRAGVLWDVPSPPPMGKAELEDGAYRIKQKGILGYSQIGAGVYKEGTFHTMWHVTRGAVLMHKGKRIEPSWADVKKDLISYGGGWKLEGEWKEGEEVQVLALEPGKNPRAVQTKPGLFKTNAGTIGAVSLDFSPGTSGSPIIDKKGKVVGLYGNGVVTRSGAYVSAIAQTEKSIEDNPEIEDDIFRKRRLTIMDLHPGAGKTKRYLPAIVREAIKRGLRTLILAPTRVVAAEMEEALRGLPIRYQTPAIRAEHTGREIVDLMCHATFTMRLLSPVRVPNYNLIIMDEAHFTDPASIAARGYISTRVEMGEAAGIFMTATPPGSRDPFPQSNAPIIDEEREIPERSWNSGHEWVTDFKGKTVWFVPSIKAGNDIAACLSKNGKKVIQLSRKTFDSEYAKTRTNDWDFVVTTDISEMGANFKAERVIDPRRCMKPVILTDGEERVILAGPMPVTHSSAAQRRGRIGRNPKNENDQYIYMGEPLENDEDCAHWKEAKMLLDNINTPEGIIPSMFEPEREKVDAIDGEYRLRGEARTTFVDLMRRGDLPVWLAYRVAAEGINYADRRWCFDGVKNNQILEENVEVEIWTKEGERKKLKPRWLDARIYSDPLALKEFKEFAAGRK
compound,measurement,value
c1cnc2cc3c(cc2n1)C1CNCC3C1 [varenicline],pIC50,< 4.70

# Reference: PMC10604274, “The Antiviral Activity of Varenicline against Dengue Virus Replication during the Post-Entry Stage” (Biomedicines, 2023)
